This note sets out measurements from US9718760B2, “Plasminogen activator inhibitor-1 inhibitors and methods of use thereof” (THE REGENTS OF THE UNIVERSITY OF MICHIGAN, priority 2012, dated 2017).

The structures appear in SMILES notation.

What all share (assay type): biochemical
Experiment [1] has as its target T1, recombinant active human PAI-1 (Homo sapiens (Human), UniProt P05121). The experiment can be described thus: Fluorometric PAI-1/uPA IC50 plate assay at pH 7.4. The protocol:
To determine the efficacy of various synthesized compounds as PAI-1 inhibitors, a fluorometric plate assay was carried out to measure the half maximal inhibitory concentration (IC50) of these compounds on recombinant active human PAI-1 in vitro. An IC50 is a measure of the effectiveness of a compound in inhibiting biological or biochemical function. Stated another way, IC50 represents the concentration of a drug that is required for 50% inhibition in vitro.
PAI-1 inhibitor compounds were dissolved in DMSO to a final concentration of (10-50 mM), depending upon solubility. Compounds were then diluted in physiologic buffer (40 mM HEPES, 100 mM NaCl, 0.05% Tween-20, pH7.4) containing 10% DMSO and a dilution series (from 0 to 1000 uM depending on solubility) was prepared. 80 μL of compound was added per well to a 96-well black, opaque microplate in duplicate. 10 μL of 20 nM Recombinant active human PAI-1 (Molecular Innovations) in physiologic buffer (40 mM HEPES, 100 mM NaCl, 0.05% Tween-20, 10% DMSO, pH 7.4), or […] physiologic buffer with 10% human plasma, was added and the mixture was agitated for 15 minutes at room temperature. 10 μL of 25 nM uPA (Rheotromb®) was added to each reaction well and the plate was agitated for an additional 30 minutes at room temperature. Tripeptide aminomethylcoumarin Gly-Gly-Arg-AMC (Calbiochem) fluorogenic substrate (100 μL of 100 μM) was then added and residual uPA activity was determined based upon cleavage of this substrate. The rate of AMC release by uPA (fluorescence) was measured at an excitation wavelength of 370 nm and an emission wavelength of 440 nm. Controls included PAI-1 and uPA in the absence of compound and uPA alone. Percent PAI-1 inhibition was calculated using the following formula: [(uPA alone-uPA/PAI-1+ compound)/(uPA alone-PAI-1/uPA)]*100%. The IC50 was calculated using Graphit (IC50 0-100%).

Experiment [2] deals with T1, recombinant active human PAI-1. The experiment can be described thus: Fluorometric PAI-1/uPA IC50 plate assay at pH 7.8. The settings on record: physiologic buffer. The protocol: To determine the efficacy of various synthesized compounds as PAI-1 inhibitors at pH 7.8, additional fluorometric plate assays were carried out to measure the half maximal inhibitory concentration (IC50) of these compounds on recombinant active human PAI-1 in vitro.
PAI-1 inhibitor compounds were dissolved in DMSO to a final concentration of (10-50 mM), depending upon solubility. […] Fluorescence, as a measure of the rate of AMC release by uPA, was read at the following wavelengths; excitation 370 nm, emission 440 nm. Controls included PAI-1 and uPA in the absence of compound and uPA alone. Percent PAI-1 inhibition was calculated using the following formula: [(uPA alone-uPA/PAI-1+ compound)/(uPA alone-PAI-1/uPA)]*100%. The IC50 was calculated using Graphit (IC50 0-100%).

Experiment [3] has the same target. In words: Fluorometric PAI-1/tPA IC50 plate assay at pH 7.8. The settings on record: physiologic buffer. The protocol: Additional fluorometric plate assays were carried out, as set out below, to determine the IC50 of various synthesized compounds as PAI-1 inhibitors.
PAI-1 inhibitor compounds were dissolved in DMSO to a final concentration of (10-50 mM), depending upon solubility. […] Tissue type PA activity in each reaction mixture was determined by adding Phe-Gly-Arg-AMC fluorogenic substrate (100 μL of 100 μM) (Centerchem). The rate of AMC release by tPA was measured at an excitation wavelength of 370 nm and an emission wavelength of 440 nm. Controls included PAI-1 and tPA in the absence of compound and tPA alone. Percent PAI-1 inhibition was calculated using the following formula: [(tPA alone-tPA/PAI-1+ compound)/(tPA alone-PAI-1/tPA)]*100%. The IC50 is calculated using Graphit (IC50 0-100%).

[4] abbreviates: physiologic buffer (40 mM HEPES, 100 mM NaCl, 0.05% Tween-20, 10% DMSO), read-out: PAI-1/uPA IC50 in buffer.

T1 sequence (P05121 24-402): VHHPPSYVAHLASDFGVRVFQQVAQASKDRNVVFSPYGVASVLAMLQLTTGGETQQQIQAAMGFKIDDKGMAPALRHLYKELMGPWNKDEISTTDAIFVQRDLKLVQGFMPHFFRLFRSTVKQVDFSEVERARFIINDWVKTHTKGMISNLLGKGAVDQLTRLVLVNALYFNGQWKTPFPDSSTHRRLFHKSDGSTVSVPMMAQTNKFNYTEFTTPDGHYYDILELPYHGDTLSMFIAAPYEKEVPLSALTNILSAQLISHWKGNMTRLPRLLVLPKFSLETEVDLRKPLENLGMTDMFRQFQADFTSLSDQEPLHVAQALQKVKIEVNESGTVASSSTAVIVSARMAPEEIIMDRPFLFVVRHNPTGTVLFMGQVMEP

Take `CCCCCCCCN(S(=O)(=O)c1cccc(O)c1)S(=O)(=O)c1cccc(O)c1` [C293]: the values for the IC50 in experiment [1] (setting [4]) and in experiment [2] were 123 µM and 77.6 µM, respectively. Consider `O=S(=O)(c1ccc(O)c(O)c1)N(c1ccc(-c2ccccc2)cc1)S(=O)(=O)c1ccc(O)c(O)c1` [C165], for which the IC50 was found to be 0.35 µM in experiment [2] and 510 nM in experiment [3]. For the compound `CCCCCCCCN(S(=O)(=O)c1cccc(O)c1)S(=O)(=O)c1ccc(O)c(O)c1` [C292], the IC50 was 68 µM in experiment [1] (setting [4]) and 4.94 µM in experiment [2].

Regarding `O=S(=O)(NCc1ccc(Cl)c(C(F)(F)F)c1)c1ccc(O)c(O)c1` [C303], the figures for the IC50 in experiment [1] (setting [4]) and in experiment [2] were 12.6 µM and 13.6 µM, respectively. As for `O=S(=O)(c1ccc(O)c(O)c1)N(c1cccc(C(F)(F)F)c1)S(=O)(=O)c1ccc(O)c(O)c1` [C163], the IC50 in experiment [2] was found to be 0.288 µM; in experiment [3], 611 nM.

Turning to `CC(C)(C)OC(=O)NCCCOC(=O)c1cc(O)c(O)c(O)c1` [C156], the IC50 in experiment [2] was found to be 189 µM; in experiment [3] it was 581000 nM.

As for `O=S(=O)(c1ccc(O)c(O)c1)N(CCc1ccccn1)S(=O)(=O)c1ccc(O)c(O)c1` [C162], the values for the IC50 in experiment [2] and in experiment [3] were 3.9 µM and 7590 nM, respectively.

Regarding `O=C1S/C(=C\c2ccc(O)c(O)c2)C(=O)N1Cc1cccc(-c2ccc(OC(F)(F)F)cc2)c1` [C207, (Z)-5-(3,4-dihydroxybenzylidene)-3-((4′-(trifluoromethoxy)-[1,1′-biphenyl]-3-yl)methyl)thiazolidine-2,4-dione], the IC50 in experiment [2] worked out at 16.8 µM. The same measure, in the same setting: under `O=C1S/C(=C\c2ccc(O)c(O)c2)C(=O)N1Cc1cccc(Br)c1` [C206, (Z)-3-(3-bromobenzyl)-5-(3,4-dihydroxybenzylidene)thiazolidine-2,4-dione] stands 4.96 µM; under `O=C(O)[C@@H](NS(=O)(=O)c1ccc(O)c(O)c1)c1ccccc1` [C273], 55.6 µM. On the same count and under the same terms, the figure for `O=C1S/C(=C\c2ccc(O)c(O)c2)C(=O)N1Cc1ccc(Br)cc1` [C203] is 17.1 µM; for `CCCCCCCN(CCN(CCCCCCC)S(=O)(=O)c1ccc(O)c(O)c1)S(=O)(=O)c1ccc(O)c(O)c1` [C184] it is 0.59 µM. With `O=S(=O)(c1ccc(O)c(O)c1)N1CCc2ccccc21` [C205], in experiment [2], the IC50 turned out to be 5.05 µM.

Regarding `CCCCCCc1ccc(N(S(=O)(=O)c2ccc(O)c(O)c2)S(=O)(=O)c2ccc(O)c(O)c2)cc1` [C188], in experiment [2], the IC50 was found to be 0.12 µM. With `CCCCCCCCN(S(=O)(=O)c1ccc(O)cc1)S(=O)(=O)c1cccc(O)c1` [C294], the IC50 in experiment [1] (setting [4]) turned out to be 234 µM; in experiment [2], 120 µM. For `O=S(=O)(NCCCc1ccccc1)c1ccc(O)c(O)c1` [C232], the IC50 in experiment [2] worked out at 13.3 µM. The same measure, in the same setting: the figure for `CCCCCCCCN(S(=O)(=O)c1ccc(-c2ccc(OC(F)(F)F)cc2)cc1)S(=O)(=O)c1ccc(O)c(O)c1` [C173] is 19.2 µM; for `CCCCCCCCCN(S(=O)(=O)c1ccc(O)c(O)c1)S(=O)(=O)c1ccc(O)c(O)c1` [C183] it is 0.18 µM. Take `O=C(CCc1ccc(O)c(O)c1)NCc1ccc(Cl)c(C(F)(F)F)c1` [C330, N-(4-chloro-3-(trifluoromethyl)benzyl)-3-(3,4-dihydroxyphenyl)propanamide]: the IC50 turned out to be 365 µM in experiment [1] (setting [4]); 112 µM in experiment [1] (physiologic buffer with 1.5% BSA (15 mg/mL), read-out: PAI-1/uPA IC50 in 1.5% BSA buffer); 115 µM in experiment [1] (physiologic buffer with 10% human plasma, read-out: PAI-1/uPA IC50 in 10% plasma buffer); 423 µM in experiment [2]. As to `O=S(=O)(c1ccc(O)c(O)c1)N(c1ccccc1)S(=O)(=O)c1ccc(O)c(O)c1` [C153], the results for the IC50 in experiment [2] and in experiment [3] were 0.7 µM and 1020 nM, respectively.
